{"source": "patent US20100267732A1", "about": "“Prognostic Molecular Markers for ET-743 Treatment” (PHARMA MAR, S.A., priority 2007, published 2010)", "system": "sarcoma", "assay": "Clinical outcome of sarcoma patients treated with ET-743 (Example 1, 160 patients; by XPG mRNA, XPG protein, BRCA1 mRNA)", "format": "in vivo, human", "parameters": "Tumor Control Rate (CR+PR+MR+SD 6 mo) / patients achieving progression free survival 6 months (PFS6) / survival at 12 months: concentration or dose not given beside the values", "protocol": "In this study, 160 paraffin embedded tumor samples from sarcoma patients before the treatment with any chemotherapy agent have been evaluated.\nThe majority of patients were treated before with one or several chemotherapy agents and later they followed a treatment with ET-743. The dosage of intravenous infusion (IV) of ET-743 given to the different patients was within the range of 1.650-1.0 mg/m^2; the schedules were 24 hours or 3 hour IV infusion with a three week interval between cycles; and the number of cycles ranged from 1 up to 44 cycles in some patients.\nThe clinical data from the patients was collected in the clinical data collection form and matched with the molecular data after completion of the mRNA and protein expression levels determination (Table 1).\nSAS v8.2 (statistical software) was used for all the statistical analysis. The statistical techniques for univariate, bivariate and multivariate variables were chosen, according with the nature of variables that will be analysed, i.e. when the dependent variable is a temporal variable with censor status the Cox regression would be applied, when correlation between variables will be computed the Pearson and/or Spearman measures would be used. P-values below 0.05 will be considered statistically significant in all tests, when appropriate 95% confidence intervals will be presented too.\nA total of 160 paraffin embedded tumor samples providing evaluable results for mRNA or protein expression were analysed. […] These samples came from sarcoma patients before being treated with a chemotherapy agent.", "key": {"[1]": {"conditions": "high vs low XPG mRNA subpopulation"}, "[2]": {"conditions": "high vs low XPG protein subpopulation"}, "[3]": {"conditions": "intermediate subpopulation (high BRCA1 and high XPG, or low BRCA1 and low XPG)"}}, "data": [{"molecule": "COc1cc2c(cc1O)CCN[C@]21CS[C@@H]2c3c(OC(C)=O)c(C)c4c(c3[C@H](COC1=O)N1[C@@H]2[C@H]2c3c(cc(C)c(OC)c3O)C[C@@H]([C@@H]1O)N2C)OCO4", "note": "[ET-743, ecteinascidin 743]", "values": [{"measurement": "Minor Responses (MR)", "setting": "140 evaluable patients", "result": 7.1, "unit": "%"}, {"measurement": "Tumor Control Rate (CR+PR+MR+SD 6 mo)", "setting": "140 evaluable patients", "result": 47.1, "unit": "%"}, {"measurement": "overall response rate (RR), Complete+Partial Responses", "setting": "140 evaluable patients", "result": 16.4, "unit": "%"}, {"measurement": "patients achieving progression free survival 6 months (PFS6)", "setting": "140 evaluable patients", "result": 41.4, "unit": "%"}, {"measurement": "CR + PR + MR + SD > 6", "setting": "High BRCA1, High XPG", "result": "11/26 (42%)"}, {"measurement": "Median PFS", "setting": "High BRCA1, High XPG", "result": 2.5, "unit": "m"}, {"measurement": "Median Survival", "setting": "High BRCA1, High XPG", "result": 13.6, "unit": "m"}, {"measurement": "PFS 6", "setting": "High BRCA1, High XPG", "result": 38.5, "unit": "%"}, {"measurement": "PFS > 6 Months rate", "setting": "High BRCA1, High XPG", "result": "9/26 (35%)"}, {"measurement": "CR + PR + MR + SD > 6", "setting": "High BRCA1, Low XPG", "result": "4/20 (20%)"}, {"measurement": "Median PFS", "setting": "High BRCA1, Low XPG", "result": 2.5, "unit": "m"}, {"measurement": "Median Survival", "setting": "High BRCA1, Low XPG", "result": 6.6, "unit": "m"}, {"measurement": "PFS 6", "setting": "High BRCA1, Low XPG", "result": 22.2, "unit": "%"}, {"measurement": "PFS > 6 Months rate", "setting": "High BRCA1, Low XPG", "result": "4/21 (19%)"}, {"measurement": "CR + PR", "setting": "High BRCA1 mRNA, High XPG mRNA", "result": "5/26 (19%)"}, {"measurement": "CR + PR", "setting": "High BRCA1 mRNA, Low XPG mRNA", "result": "0/20 (0%)"}, {"measurement": "CR + PR + MR + SD > 6", "setting": "Low BRCA1, High XPG", "result": "12/19 (63%)"}, {"measurement": "Median PFS", "setting": "Low BRCA1, High XPG", "result": 7.3, "unit": "m"}, {"measurement": "Median Survival", "setting": "Low BRCA1, High XPG", "result": 15.4, "unit": "m"}, {"measurement": "PFS 6", "setting": "Low BRCA1, High XPG", "result": 55.7, "unit": "%"}, {"measurement": "PFS > 6 Months rate", "setting": "Low BRCA1, High XPG", "result": "10/21 (48%)"}, {"measurement": "CR + PR + MR + SD > 6", "setting": "Low BRCA1, Low XPG", "result": "14/31 (45%)"}, {"measurement": "Median PFS", "setting": "Low BRCA1, Low XPG", "result": 3.4, "unit": "m"}, {"measurement": "Median Survival", "setting": "Low BRCA1, Low XPG", "result": 11.7, "unit": "m"}, {"measurement": "PFS 6", "setting": "Low BRCA1, Low XPG", "result": 35.5, "unit": "%"}, {"measurement": "PFS > 6 Months rate", "setting": "Low BRCA1, Low XPG", "result": "12/27 (61%)"}, {"measurement": "CR + PR", "setting": "Low BRCA1 mRNA, High XPG mRNA", "result": "3/19 (16%)"}, {"measurement": "CR + PR", "setting": "Low BRCA1 mRNA, Low XPG mRNA", "result": "6/31 (19%)"}, {"measurement": "CR + PR", "setting": "XPG mRNA < 1.55", "result": "6/59 (10%)"}, {"measurement": "CR + PR + MR + SD ≧ 6", "setting": "XPG mRNA < 1.55", "result": "21/59 (36%)"}, {"measurement": "Median PFS (KM)", "setting": "XPG mRNA < 1.55", "result": 2.5, "unit": "m"}, {"measurement": "Median Survival (KM)", "setting": "XPG mRNA < 1.55", "result": 9.3, "unit": "m"}, {"measurement": "PFS6 (KM)", "setting": "XPG mRNA < 1.55", "result": 29.5, "unit": "%"}, {"measurement": "PFS ≧ 6 Months rate", "setting": "XPG mRNA < 1.55", "result": "18/60 (30%)"}, {"measurement": "CR + PR", "setting": "XPG mRNA ≧ 1.55", "result": "11/57 (19%)"}, {"measurement": "CR + PR + MR + SD ≧ 6", "setting": "XPG mRNA ≧ 1.55", "result": "32/57 (56%)"}, {"measurement": "Median PFS (KM)", "setting": "XPG mRNA ≧ 1.55", "result": 7.1, "unit": "m"}, {"measurement": "Median Survival (KM)", "setting": "XPG mRNA ≧ 1.55", "result": 19.1, "unit": "m"}, {"measurement": "PFS6 (KM)", "setting": "XPG mRNA ≧ 1.55", "result": 52.1, "unit": "%"}, {"measurement": "PFS ≧ 6 Months rate", "setting": "XPG mRNA ≧ 1.55", "result": "28/59 (47.5%)"}, {"measurement": "CR + PR + MR + SD ≧ 6", "setting": "XPG protein 0 + 1", "result": "27/64 (42%)"}, {"measurement": "Median PFS (KM)", "setting": "XPG protein 0 + 1", "result": 3.7, "unit": "m"}, {"measurement": "Median Survival (KM)", "setting": "XPG protein 0 + 1", "result": 11.7, "unit": "m"}, {"measurement": "PFS6 (KM)", "setting": "XPG protein 0 + 1", "result": 39.9, "unit": "%"}, {"measurement": "PFS ≧ 6 Months", "setting": "XPG protein 0 + 1", "result": "26/64 (39%)"}, {"measurement": "CR + PR + MR + SD ≧ 6", "setting": "XPG protein 2 + 3", "result": "15/25 (60%)"}, {"measurement": "Median PFS (KM)", "setting": "XPG protein 2 + 3", "result": 7.1, "unit": "m"}, {"measurement": "Median Survival (KM)", "setting": "XPG protein 2 + 3", "result": 27.7, "unit": "m"}, {"measurement": "PFS6 (KM)", "setting": "XPG protein 2 + 3", "result": 55.6, "unit": "%"}, {"measurement": "PFS ≧ 6 Months", "setting": "XPG protein 2 + 3", "result": "13/25 (50%)"}, {"measurement": "CR + PR", "setting": "XPG protein IHC score 0 + 1", "result": "8/64 (13%)"}, {"measurement": "CR + PR", "setting": "XPG protein IHC score 2 + 3", "result": "6/25 (24%)"}, {"measurement": "survival at 12 months", "setting": "high XPG expression (protein analysis, FIG. 5)", "result": 73.7, "unit": "%"}, {"measurement": "survival at 12 months", "setting": "high XPG mRNA expression", "result": 61.9, "unit": "%"}, {"measurement": "fold increase in objective response", "setting": "[1]", "result": 1.9, "unit": "fold"}, {"measurement": "fold increase in tumor control rate", "setting": "[1]", "result": 1.6, "unit": "fold"}, {"measurement": "fold increase in objective response", "setting": "[2]", "result": 1.85, "unit": "fold"}, {"measurement": "fold increase in tumor control rate", "setting": "[2]", "result": 1.43, "unit": "fold"}, {"measurement": "Median OS", "setting": "[3]", "result": 13.6, "unit": "months"}, {"measurement": "Median PFS", "setting": "[3]", "result": 2.8, "unit": "months"}, {"measurement": "PFS6 rate", "setting": "[3]", "result": 36.6, "unit": "%"}, {"measurement": "survival at 12 months", "setting": "low XPG mRNA expression", "result": 46.2, "unit": "%"}, {"measurement": "survival at 12 months", "setting": "low XPG protein expression", "result": 45.5, "unit": "%"}, {"measurement": "median duration of the response (CR+PR+MR)", "setting": "whole cohort", "result": 7.83, "unit": "months"}, {"measurement": "Median Survival", "setting": "whole cohort, 51 patients still censored", "result": 10, "unit": "months"}]}]}
